Results reported in ChEMBL document CHEMBL5154799, “Discovery of a Novel Stilbene Derivative as a Microtubule Targeting Agent Capable of Inducing Cell Ferroptosis” (J Med Chem, 2022).
The source made the active and inactive calls. The rule behind the calls is not given here.

What was measured:
LoVo = assay: Antiproliferative activity against human LoVo cells assessed as inhibition of cell proliferation incubated for 2 hrs by CCK-8 assay; assay type: functional, cell-based; conditions: DDE = dose-dependent effect
[1] = Cytotoxicity against HLF cells assessed as reduction in cell viability; assay type: toxicity, cell-based; conditions: human
[2] = Toxicity in human A549 cells xenografted in athymic nude BALB/c nude mouse assessed as morphological changes in lung at 10 mg/kg, ip measured after 30 days by H and E staining based histological analysis; assay type: organism-based; conditions: in vivo, 720 h, time 30 day
A549 [3] = assay: Resistance index, ratio of IC50 for antiproliferative activity against human adriamycin-resistant A549/ADR cells to IC50 for antiproliferative activity against human A549 cells; assay type: functional
[4] = Tmax in ICR mouse at 1 mg/kg, iv single administration measured for 24 hrs post treatment by LC-MS/MS analysis; assay type: ADME, organism-based; conditions: in vivo
[5] = Tmax in ICR mouse at 10 mg/kg, po single administration measured for 24 hrs post treatment by LC-MS/MS analysis; assay type: ADME, organism-based; conditions: in vivo
Tubulin (Homo sapiens) = Tubulin (Homo sapiens) (UniProt P68371+Q9H4B7+P0DPH7+P68366+Q13509+Q71U36+P04350+Q3ZCM7+P07437+P68363+Q9BQE3+Q6PEY2+Q13885+Q9BVA1+Q9BUF5); assay: Induction of microtubule disruption in human A549 cells assessed as abnormal chromosomes at 5 to 20 uM incubated for 12 hrs by immunofluorescence based laser scanning confocal microscopic analysis; assay type: cell-based; conditions: dose 5-20 µM
A549 [6] = assay: In vivo antitumor activity against human A549 cells xenografted in athymic nude BALB/c mouse assessed as tumor growth inhibition at 10 mg/kg measured after 30 days relative to control; assay type: functional; conditions: A549, 720 h, time 30 day, read-out: TGI
[7] = AUC (0 to t) in ICR mouse at 10 mg/kg, po single administration measured for 24 hrs post treatment by LC-MS/MS analysis; assay type: ADME, organism-based; conditions: in vivo
MCF7 = assay: Antiproliferative activity against human MCF7 cells assessed as cell viability incubated for 48 hrs by MTT assay; assay type: functional, cell-based; conditions: MCF7, 48 h

C=C(c1cc(OC)c(OC)c(OC)c1)c1ccc(OC)c(O)c1NC(=O)CO
Activity (LoVo): Dde | IC50 [1]: 1320 nM | Activity [2]: Non-Toxic | Ratio IC50 (A549 [3]): 2 | Tmax [4]: 4.8 min | Tmax [5]: 15 min | Activity (Tubulin (Homo sapiens)): Active | inhibition in vivo at 10 mg/kg (A549 [6]): 78.6% | AUCt [7]: 2432.04 h/ng/mL | IC50 (MCF7): 50 nM
